The target of assay [1] is KIT(L576P) (Homo sapiens, UniProt P10721, L576P). The assay is described as follows: biochemical. The following applies: read-out: Percent control.
In assay [2] the test system is EGFR(L747-T751del,Sins). The format is binding. The conditions noted are these: 10 μM.
Assay [3] concerns the target T1, EPHA6 (Homo sapiens, UniProt Q9UF33).
T1 sequence (Q9UF33 23-1036): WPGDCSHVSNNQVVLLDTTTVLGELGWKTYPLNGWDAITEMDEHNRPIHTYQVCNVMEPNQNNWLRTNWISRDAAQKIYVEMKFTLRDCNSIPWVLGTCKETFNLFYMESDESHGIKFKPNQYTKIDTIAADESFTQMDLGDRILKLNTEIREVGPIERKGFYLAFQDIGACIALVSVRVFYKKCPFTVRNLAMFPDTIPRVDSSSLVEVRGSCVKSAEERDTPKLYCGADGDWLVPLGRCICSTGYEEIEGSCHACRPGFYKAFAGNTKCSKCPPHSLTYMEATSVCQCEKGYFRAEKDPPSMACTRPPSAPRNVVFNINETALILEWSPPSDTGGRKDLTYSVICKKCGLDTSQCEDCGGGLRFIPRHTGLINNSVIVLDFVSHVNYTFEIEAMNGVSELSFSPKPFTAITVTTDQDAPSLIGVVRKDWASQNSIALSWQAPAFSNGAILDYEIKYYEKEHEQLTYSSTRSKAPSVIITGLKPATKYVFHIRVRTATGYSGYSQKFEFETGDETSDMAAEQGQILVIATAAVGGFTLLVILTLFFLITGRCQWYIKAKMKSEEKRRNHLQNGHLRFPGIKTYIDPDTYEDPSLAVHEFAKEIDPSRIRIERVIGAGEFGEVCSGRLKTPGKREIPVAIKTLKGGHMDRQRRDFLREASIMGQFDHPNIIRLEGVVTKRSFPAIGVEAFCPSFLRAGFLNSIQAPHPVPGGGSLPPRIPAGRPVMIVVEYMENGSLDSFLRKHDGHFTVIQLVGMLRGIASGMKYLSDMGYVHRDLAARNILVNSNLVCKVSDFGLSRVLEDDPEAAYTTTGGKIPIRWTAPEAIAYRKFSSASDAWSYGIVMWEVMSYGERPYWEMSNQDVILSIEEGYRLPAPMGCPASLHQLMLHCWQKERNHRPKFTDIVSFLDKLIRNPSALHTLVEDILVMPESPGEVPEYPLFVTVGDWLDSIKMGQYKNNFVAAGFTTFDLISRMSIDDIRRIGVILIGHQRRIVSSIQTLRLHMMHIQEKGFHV
The following applies: 10 μM.

Assay [4] has as its target FLT1 (Homo sapiens, UniProt P17948). The conditions noted are these: 10 μM.
For assay [5], the target named is T2, FLT3 (Homo sapiens, UniProt P36888).
T2 sequence (P36888 27-993): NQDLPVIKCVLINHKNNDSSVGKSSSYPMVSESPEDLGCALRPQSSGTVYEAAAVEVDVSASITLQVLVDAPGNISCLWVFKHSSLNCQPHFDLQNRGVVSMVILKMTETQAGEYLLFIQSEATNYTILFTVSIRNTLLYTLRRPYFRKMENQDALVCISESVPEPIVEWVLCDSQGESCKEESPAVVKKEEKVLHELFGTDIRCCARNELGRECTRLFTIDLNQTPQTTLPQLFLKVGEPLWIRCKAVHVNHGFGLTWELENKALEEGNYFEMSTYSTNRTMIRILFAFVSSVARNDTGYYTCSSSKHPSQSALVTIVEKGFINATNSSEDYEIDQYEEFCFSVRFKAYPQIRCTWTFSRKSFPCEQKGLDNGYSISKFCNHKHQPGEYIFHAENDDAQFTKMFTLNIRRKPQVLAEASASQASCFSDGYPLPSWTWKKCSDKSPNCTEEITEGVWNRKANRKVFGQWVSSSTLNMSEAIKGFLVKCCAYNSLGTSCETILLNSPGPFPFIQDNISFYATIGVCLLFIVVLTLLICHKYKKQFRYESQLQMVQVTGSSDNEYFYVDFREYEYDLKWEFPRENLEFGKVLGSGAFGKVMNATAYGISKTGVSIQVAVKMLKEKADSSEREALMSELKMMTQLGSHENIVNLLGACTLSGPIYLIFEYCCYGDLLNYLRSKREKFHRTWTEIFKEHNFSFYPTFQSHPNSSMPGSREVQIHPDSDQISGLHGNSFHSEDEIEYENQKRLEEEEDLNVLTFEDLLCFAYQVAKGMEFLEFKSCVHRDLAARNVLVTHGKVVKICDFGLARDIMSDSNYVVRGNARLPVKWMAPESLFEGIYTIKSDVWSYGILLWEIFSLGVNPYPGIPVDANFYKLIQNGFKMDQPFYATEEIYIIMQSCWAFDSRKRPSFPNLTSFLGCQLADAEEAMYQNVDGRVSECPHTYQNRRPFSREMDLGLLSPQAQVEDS

Assay [6] has as its target KIT (Homo sapiens, UniProt P10721). The conditions noted are these: 10 μM.

The structures appear in SMILES notation. Like-named read-outs stand apart in the source and are kept apart here.

FLT1, sequence (P17948 27-1338): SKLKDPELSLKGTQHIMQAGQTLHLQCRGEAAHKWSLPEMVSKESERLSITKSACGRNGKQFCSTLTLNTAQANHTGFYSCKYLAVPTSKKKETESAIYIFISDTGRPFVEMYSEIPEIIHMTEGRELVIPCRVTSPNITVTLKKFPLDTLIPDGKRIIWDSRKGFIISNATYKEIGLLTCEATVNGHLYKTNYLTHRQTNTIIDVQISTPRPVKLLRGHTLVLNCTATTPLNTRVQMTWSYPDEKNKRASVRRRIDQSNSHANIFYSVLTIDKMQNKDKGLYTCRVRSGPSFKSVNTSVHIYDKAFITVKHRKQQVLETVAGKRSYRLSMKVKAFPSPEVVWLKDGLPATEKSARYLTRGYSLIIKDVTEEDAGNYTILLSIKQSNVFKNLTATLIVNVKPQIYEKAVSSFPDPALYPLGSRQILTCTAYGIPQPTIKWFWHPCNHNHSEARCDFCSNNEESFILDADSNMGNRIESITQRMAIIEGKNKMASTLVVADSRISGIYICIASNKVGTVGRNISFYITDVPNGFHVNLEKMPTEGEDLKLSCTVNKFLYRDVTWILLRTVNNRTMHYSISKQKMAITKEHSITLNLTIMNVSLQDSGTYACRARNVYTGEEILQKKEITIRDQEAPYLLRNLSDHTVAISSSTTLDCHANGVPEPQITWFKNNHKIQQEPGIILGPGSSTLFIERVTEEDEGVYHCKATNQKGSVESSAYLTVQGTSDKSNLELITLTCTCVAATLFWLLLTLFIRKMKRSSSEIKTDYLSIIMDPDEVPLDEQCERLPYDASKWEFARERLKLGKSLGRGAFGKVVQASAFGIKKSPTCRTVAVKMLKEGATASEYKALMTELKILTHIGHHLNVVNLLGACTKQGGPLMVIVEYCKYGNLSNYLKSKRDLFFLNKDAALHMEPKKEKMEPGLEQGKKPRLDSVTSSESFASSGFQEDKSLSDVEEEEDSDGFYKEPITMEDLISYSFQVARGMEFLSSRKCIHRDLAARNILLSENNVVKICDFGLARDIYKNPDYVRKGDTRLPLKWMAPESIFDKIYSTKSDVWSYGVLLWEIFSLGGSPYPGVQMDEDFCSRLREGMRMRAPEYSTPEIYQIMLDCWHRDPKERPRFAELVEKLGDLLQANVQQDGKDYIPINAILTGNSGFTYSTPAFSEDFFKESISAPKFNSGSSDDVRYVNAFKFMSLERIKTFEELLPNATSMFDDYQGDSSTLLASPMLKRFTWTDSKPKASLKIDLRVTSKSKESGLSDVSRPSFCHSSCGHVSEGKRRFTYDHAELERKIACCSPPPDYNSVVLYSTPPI
KIT, sequence (P10721 26-976): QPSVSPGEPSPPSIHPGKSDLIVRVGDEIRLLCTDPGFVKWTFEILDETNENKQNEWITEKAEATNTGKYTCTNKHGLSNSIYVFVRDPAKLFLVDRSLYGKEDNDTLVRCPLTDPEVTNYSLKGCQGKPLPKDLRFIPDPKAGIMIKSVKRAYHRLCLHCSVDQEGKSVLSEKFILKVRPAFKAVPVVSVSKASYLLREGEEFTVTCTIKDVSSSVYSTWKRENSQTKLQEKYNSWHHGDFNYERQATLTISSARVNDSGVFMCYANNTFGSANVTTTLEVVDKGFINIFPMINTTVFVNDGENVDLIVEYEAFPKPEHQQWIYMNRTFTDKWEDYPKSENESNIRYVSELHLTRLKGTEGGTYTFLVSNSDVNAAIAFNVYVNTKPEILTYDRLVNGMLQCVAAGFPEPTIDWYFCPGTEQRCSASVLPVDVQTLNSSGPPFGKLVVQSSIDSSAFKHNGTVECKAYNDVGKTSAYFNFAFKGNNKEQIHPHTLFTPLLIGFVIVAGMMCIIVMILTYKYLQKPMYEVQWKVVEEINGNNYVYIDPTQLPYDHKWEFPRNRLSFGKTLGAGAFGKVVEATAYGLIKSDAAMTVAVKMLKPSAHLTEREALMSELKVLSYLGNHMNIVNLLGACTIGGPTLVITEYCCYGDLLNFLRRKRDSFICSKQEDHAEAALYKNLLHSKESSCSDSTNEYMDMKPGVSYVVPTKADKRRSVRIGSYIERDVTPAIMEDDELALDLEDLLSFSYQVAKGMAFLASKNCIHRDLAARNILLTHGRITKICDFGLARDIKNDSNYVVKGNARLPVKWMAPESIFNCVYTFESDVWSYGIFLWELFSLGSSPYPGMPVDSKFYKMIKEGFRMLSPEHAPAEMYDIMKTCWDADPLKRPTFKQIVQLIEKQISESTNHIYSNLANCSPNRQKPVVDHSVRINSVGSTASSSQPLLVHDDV
KIT(L576P), sequence (P10721 26-976 L576P): as the sequence (P10721 26-976) above, with L551P counted along it

As for `COc1cc2c(Nc3ccc(Br)cc3F)ncnc2cc1OCC1CCN(C)CC1` [Vandetanib, reference compound], the remaining activity at 10 µM in assay [1] amounted to 1.4%. Further, in assay [2], the Percent control came out at 0.1%.

As to `Cc1ccc(NC(=O)c2ccc(CN3CCN(C)CC3)cc2)cc1Nc1nccc(-c2cccnc2)[n+]1[Pt-2]1([Cl])[NH2+]C2CCCCC2[NH2+]1` (stereo not drawn) [1b, oxaliplatin-imatinib], the Percent control in assay [3] turned out to be 90%; in assay [4], 85%; in assay [5] (FLT3, 10 μM), 88%; in assay [6], 0.2%; in assay [2], 76%.

Regarding `C#Cc1cccc(Nc2ncnc3cc(OCCOC)c(OCCOC)cc23)c1` [Erlotinib], the remaining activity at 10 µM in assay [1] worked out at 25.9%. In addition, the Percent control in assay [2] came out at 0.0%.

Regarding `COc1cc2c(Nc3ccc(Br)cc3F)[n+]([Pt-2]3([Cl])[NH2+]C4CCCCC4[NH2+]3)cnc2cc1OCC1CCN(C)CC1` (stereo not drawn) [3b, oxaliplatin-vandetanib], the Percent control worked out at 6.3% in assay [3], 49 in assay [5] and 1.1% in assay [6].

Regarding `C#Cc1cccc(Nc2c3cc(OCCOC)c(OCCOC)cc3nc[n+]2[Pt@SP2-2]([NH3+])([NH3+])[Cl])c1` [2a, cisplatin-erlotinib], the Percent control in assay [3] is 71%; in assay [4] it was 88%; in assay [5], 75; in assay [6], 86%.

As for `Cc1ccc(NC(=O)c2ccc(CN3CCN(C)CC3)cc2)cc1Nc1nccc(-c2cccnc2)n1` [Imatinib, reference compound], the Percent control was 100% in assay [3]; 100% in assay [4]; 100% in assay [5] (FLT3, 10 μM); 100% in assay [2]. Moreover, the remaining activity at 10 µM in assay [1] is 0.1%.

Source of the values: publication PMC4858680, “A platinum-based hybrid drug design approach to circumvent acquired resistance to molecular targeted tyrosine kinase inhibitors” (Scientific Reports, 2016).
